The assay deals with Fusarium graminearum. Put plainly: Antifungal activity against Fusarium graminearum JT04 assessed as inhibition of mycelial growth. It counts as functional, organism-based.

On to `COC(=O)Nc1nc2ccccc2[nH]1` [CARBENDAZIM], for which the MIC is above 200 µg/mL.

The record behind these values is ChEMBL document CHEMBL3045889 (Pest Manag Sci, 2012).
